Source: patent US9115093B2, “Substituted bicyclic dihydropyrimidinones and their use as inhibitors of neutrophil elastase activity” (Boehringer Ingelheim International GmbH, priority 2013, dated 2015)

Key:
neutrophil elastase = target: T1, neutrophil elastase (Homo sapiens, UniProt P08246); experiment: Neutrophil elastase inhibitory activity in human plasma; format: biochemical; set-up: The stimulated blood is centrifuged to generate the neutrophil elastase enriched plasma; from tissue; host or cells: plasma from zymosan-stimulated citrated whole blood of healthy human donors; conditions: neutrophil elastase enriched human plasma (zymosan-stimulated blood), substrate MeOSuc-Ala-Ala-Pro-Val-AMC
T1 sequence (P08246 30-247 limits assumed): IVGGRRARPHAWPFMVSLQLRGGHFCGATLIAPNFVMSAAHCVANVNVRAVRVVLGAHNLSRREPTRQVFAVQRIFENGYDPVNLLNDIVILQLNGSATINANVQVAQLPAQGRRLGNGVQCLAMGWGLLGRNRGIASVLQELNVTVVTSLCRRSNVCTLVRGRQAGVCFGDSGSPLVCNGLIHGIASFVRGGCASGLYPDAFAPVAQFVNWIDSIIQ
Procedure: Assay for the Determination of Neutrophil Elastase Inhibitory Activity in Human Plasma
Citrated blood from human healthy donors is mixed with zymosan suspension and incubated at room temperature. This leads to the stimulation of neutrophils and the release of neutrophil elastase into the plasma. The stimulated blood is centrifuged to generate the neutrophil elastase enriched plasma.
Preparation of Zymosan Working Solution:
• single 45 ml blood sample is taken into a 50 ml tube containing citrate (3.13%, 5 mL) and the tube is gently inverted 4 times. • Immediately after blood sampling, zymosan working solution (5 mL) is added. • After the addition of zymosan working solution, the tubes are capped, mixed gently and incubated at 22° C. for 15 min on a shaker at 20 rpm. • Make 10 ml aliquots after the incubation time. • Centrifuge the 15 ml tubes at 800 g for […] at 4° C. in a Jouan centrifuge. • Harvest the plasma and make 1-5 ml aliquots. • Store the plasma at −80° C.
Various concentrations of the neutrophil elastase inhibitor are incubated with plasma. Subsequently, the enzyme activity is measured using the fluorogenic substrate MeOSuc-Ala-Ala-Pro-Val-AMC (Bachem Cat. No. 1-1270, substrate concentration: 250 μM, pH 7.5, 25 mM TRIS buffer, 250 mM NaCl) in analogous fashion as described for the human neutrophil assay. A dose response curve is generated to calculate the EC50 of the inhibitor. The analysis of the data is performed by the calculation of the percentage of fluorescence in the presence of the test compound compared to the fluorescence of the vehicle control after subtracting the background fluorescence: An inhibitor of the neutrophil elastase enzyme will give values between 100% control (no inhibition) and 0% control (complete inhibition). The human plasma shift of selected compounds can be calculated using the following equation: Human plasma shift=(EC50 in human plasma assay)/(IC50 in human neutrophil elastase assay) The EC50 values of selected compounds in the human plasma assay described above are listed in Table 14.

[1] = Drug transport across human CACO-2 cells; format: in vitro ADME
Excerpt: Assay for Determination of Drug Transport Across Human CACO-2 Cells
The assay provides information on the potential of a compound to pass the cell membrane, on the extent of oral absorption as well as on whether the compound is actively transported by uptake and/or efflux transporters. For the measurement of permeability across polarized, confluent human cancer colon carcinoma cells 2 (Caco-2) cell monolayers grown on permeable filter supports are used as the in vitro absorption model. Apparent permeability coefficients (PE) of the compounds across the Caco-2 monolayers are measured (pH 7.2, 37° C.) in apical-to-basal (AB) (absorptive) and basal-to-apical (BA) (secretory) transport direction. AB permeability (PEAB) represents drug absorption from the intestine into the blood and BA permeability (PEBA) drug secretion from the blood back into the intestine via both passive permeability as well as active transport mechanisms mediated by efflux and uptake transporters that are expressed on the Caco-2 cells. The compounds are assigned to permeability/absorption classes by comparison of the AB permeabilities with the AB permeabilities of reference compounds with known in vitro permeability and oral absorption in the human. Identical or similar permeabilities in both transport directions indicate passive permeation, vectorial permeability points to additional active transport mechanisms. […] Active transport is concentration-dependently saturable.
Caco-2 cells (1−2*10^5 cells/cm^2 area) are seeded on filter inserts (Costar transwell polycarbonate or PET filters, […] pore size) and cultured (DMEM) for 10 to 25 days. Compounds are dissolved in appropriate solvent (like DMSO, 1-20 mM stock solutions). Stock solutions are diluted with HTP-4 buffer (128.13 mM NaCl, 5.36 mM KCl, 1 mM MgSO4, 1.8 mM CaCl2, 4.17 mM NaHCO3, 1.19 mM Na2HPO4×7H2O, 0.41 mM NaH2PO4×H2O, 15 mM HEPES, 20 mM glucose, pH 7.2) to prepare the transport solutions (typically […] compound, final DMSO <=0.5%). The transport solution (TL) is applied to the apical or basolateral donor side for measuring A-B or B-A permeability (3 filter replicates), respectively. The receiver side contains HTP-4 buffer supplemented with 2% BSA. Samples are collected at the start and end of experiment from the donor and at various time intervals for up to 2 hours also from the receiver side for concentration measurement by LC-MS/MS or scintillation counting. Sampled receiver volumes are is replaced with fresh receiver solution.
The apparent permeability coefficients (PEAB and PEBA) and efflux ratios (PEBA/PEAB) of selected compounds in the Caco-2 drug transport assay described above are listed in Table 17.

Row | Papp A→B at 10 nM ([1]; Caco-2 monolayers, apical-to-basal, pH 7.2, 37° C., read-out: PEAB) | Papp B→A at 10 nM ([1]; Caco-2 monolayers, basal-to-apical, pH 7.2, 37° C., read-out: PEBA) | efflux ratio at 10 nM ([1]; pH 7.2, Caco-2, PEBA/PEAB) | Compound | EC50 (neutrophil elastase)
1 | – | – | – | CC(C)NC(=O)N1C(=O)N(c2cccc(C(F)(F)F)c2)C2=C(C(=O)CCC2)[C@H]1c1ccc(C#N)cc1S(C)(=O)=O [Example 75.3] | 1 nM
2 | 12.8 ×10⁻⁶ cm/s | 76.5 ×10⁻⁶ cm/s | 6 | N#Cc1ccc(C2C3=C(CCCC3=O)N(c3cccc(C(F)(F)F)c3)C(=O)N2C(=O)NCCO)cc1 (stereo not shown) [Example 39.3] | 6 nM
3 | – | – | – | CS(=O)(=O)CCNC(=O)N1C(=O)N(c2cccc(C(F)(F)F)c2)C2=C(C(=O)CCC2)C1c1ccc(C#N)cc1 (stereo not shown) [Example 39.19] | 9 nM
4 | – | – | – | CS(=O)(=O)c1cc(C#N)ccc1[C@@H]1C2=C(CCCC2=O)N(c2cccc(C(F)(F)F)c2)C(=O)N1C(=O)NCC(F)F [Example 75.7] | 1 nM
